Assay results from PMC10819771 (Pharmaceuticals, 2023).
Read-outs that look alike come from different tables or passages of the source.

What was measured:
[1] = system: Fc-MYCT; test: FRET-melting, Fc-MYCT; format: binding; conditions: ligand 2 μM, DNA 0.2 μM, K+ conditions, pH 7.2
Description: (§1) FRET-melting experiments were conducted on a Stratagene MX3005P (Thermo Fisher Scientific, Illkirch-Graffenstaden, France) real-time PCR equipment in 96-well plates on the DNA sequences reported in Table 4. Experiments were performed in 10 mM lithium cacodylate buffer (pH 7.2) and either 10 mM KCl and 90 mM LiCl (FK-RAST, FBCL-2T, F21T, and FdxT) or 1 mM KCl and 99 mM LiCl (Fc-MYCT) concentrations, depending on the Tm of the G4s alone. The DNA concentration was 0.2 µM. […] Data are presented as an average of three independent measurements, each conducted in duplicate conditions (λexc = 492 nm, λem = 516 nm, T interval = 25–95 °C, ramp: 25 °C for 5 min, then 1 °C/min, measurements every 1 °C, 8× magnification of the fluorescence signal).

[2] = system: A2780; test: MTT antiproliferative assay, A2780; format: cell-based, human; conditions: Homo sapiens, A2780; MTT, 72 h, ovarian cancer cells; read-out: IC50 Values (μM) ± SEM A2780
Description: (§2) The growth-inhibitory effects of the compounds were determined by MTT (3-(4,5-dimethylthiazol-2-yl)-2,5-diphenyltetrazolium bromide) assay on selected cell lines, including HeLa and SiHa (cervical cancers), MDA-MB-231 and MCF-7 (breast cancers), and A2780 ovarian cancer cells. All cell lines were purchased from the European Collection of Cell Cultures (Salisbury, UK) except SiHa, which was obtained from the American Tissue Culture Collection (Manassas, VA, USA). The cells were kept in minimum essential medium supplemented with 10% fetal bovine serum, 1% non-essential amino acids, and 1% penicillin-streptomycin-amphotericin-B at 37 °C in a humidified atmosphere containing 5% CO2. Media and supplements were obtained from Lonza Group Ltd., (Basel, Switzerland). Cancer cells were seeded onto 96-well plates (5000 cells/well), after an overnight incubation the test compounds were added in six concentrations (0.1, 0.3, 1.0, 3.0, 10.0, 30.0 µM) and incubated for 72 h under cell-culture condition. After the incubation, 20 μL of 5 mg/mL MTT solution was added to each well and incubated for a further 4 h. The medium was removed, and the precipitated formazan crystals were dissolved in DMSO for 30 min under shaking at 37 °C. The absorbance was measured at 545 nm with a microplate reader. Untreated cells were included as controls. Calculations were performed by means of the GraphPad Prism 5.01 software (GraphPad Software Inc., San Diego, CA, USA). At least two independent determinations were performed with 5 parallel wells for each condition.

[3] = system: K562; test: MTS cell proliferation assay, K562; format: cell-based, human; conditions: Homo sapiens, K562, 72 h; MTS, 3-day incubation, leukemia cells; read-out: IC50 Values (μM) ± SEM K562
Description: The human leukemic cell line K562 was grown in RPMI 1640 medium (Life Technology-Invitrogen by Thermo Fisher Scientific, Saint-Aubin, France) supplemented with 10% fetal calf serum (FCS), antibiotics (100 U/mL penicillin, 100 µg/mL streptomycin), and L-glutamine, (Eurobio, Les Ulis, France) at 37 °C, 5% CO2 in air. The MTS cell proliferation assay (Promega, Charbonnières-les-Bains, France) is a colorimetric assay system, which measures the transformation of a tetrazolium component (MTS) into formazan produced by the mitochondria of viable cells. Cells were washed twice in PBS (Phosphate Buffer Saline) and plated in quadruplicate into microtiter-plate wells in 100 μL culture media with or without our various compounds at increasing concentrations (0, 1, 5, 10, 20, and 50 μM) for 1, 2, and 3 days. After 3 h of incubation at 37 °C with 20 μL MTS/well, the plates were read using an ELISA microplate reader (Thermo, Electrocorporation, Waltham, MA, USA) at 490 nm. The amount of color produced was directly proportional to the number of viable cells. The results are expressed as the concentrations inhibiting cell growth by 50% after a 3-day incubation period. The 50% cytotoxic concentrations (CC50) were determined by linear regression analysis, expressed in μM ± SD (Microsoft Excel).

[4] = system: Fc-MYCT (DNA, G4) GGGTGGGTAGGGTGGGTAA; test: FRET melting; conditions: 1 mM K+, 99 mM Li+ (table footnote says 10 mM KCl, 90 mM LiCl); 10 mM lithium cacodylate pH 7.2; 0.2 µM DNA, 2 µM compound
[5] = system: SiHa; test: MTT antiproliferative assay, SiHa; format: cell-based, human; conditions: Homo sapiens, SiHa; MTT, 72 h, cervical cancer cells; read-out: IC50 Values (μM) ± SEM SiHa
Description: as §2

[6] = system: human telomeric sequence F21T; test: FRET-melting, F21T; format: binding; conditions: ligand 2 μM, DNA 0.2 μM, 10 mM KCl, 90 mM LiCl, pH 7.2
Description: as §1

[7] = system: HeLa; test: MTT antiproliferative assay, HeLa; format: cell-based, human; conditions: Homo sapiens, HeLa; MTT, 72 h, cervical cancer cells; read-out: IC50 Values (μM) ± SEM HeLa
Description: as §2

[8] = system: MCF-7; test: MTT antiproliferative assay, MCF-7; format: cell-based, human; conditions: MTT, 72 h, breast cancer cells, read-out: IC50 Values (μM) ± SEM MCF-7
Description: as §2

[9] = system: MDA-MB-231; test: MTT antiproliferative assay, MDA-MB-231; format: cell-based, human; conditions: MTT, 72 h, breast cancer cells, read-out: IC50 Values (μM) ± SEM MDA-MB-231
Description: as §2

[10] = system: FdxT; test: FRET-melting, duplex control FdxT; format: binding; conditions: ligand 2 μM, DNA 0.2 μM, 10 mM KCl, 90 mM LiCl, pH 7.2, hairpin duplex
Description: as §1

[11] = system: FBCL-2T; test: FRET-melting, FBCL-2T; format: binding; conditions: ligand 2 μM, DNA 0.2 μM, 10 mM KCl, 90 mM LiCl, pH 7.2
Description: as §1

[12] = system: FK-RAST; test: FRET-melting, FK-RAST; format: binding; conditions: ligand 2 μM, DNA 0.2 μM, 10 mM KCl, 90 mM LiCl, pH 7.2
Description: as §1

[13] = system: FK-RAST (DNA, G4) AGGGCGGTGTGGGAAGAGGGA; test: FRET melting; conditions: 10 mM K+, 90 mM Li+; 10 mM lithium cacodylate pH 7.2; 0.2 µM DNA, 2 µM compound
[14] = system: F21T (DNA, G4) GGGTTAGGGTTAGGGTTAGGG; test: FRET melting; conditions: 10 mM K+, 90 mM Li+; 10 mM lithium cacodylate pH 7.2; 0.2 µM DNA, 2 µM compound

| Compound | ΔT1/2 (°C) Fc-MYCT [1] [°C] | IC50 [2] [µM] | IC50 [3] [µM] | ΔT1/2 [4] [°C] | IC50 [5] [µM] | ΔT1/2 (°C) F21T [6] [°C] | IC50 [7] [µM] | IC50 ([8]; Homo sapiens, MCF7, 72 h) [µM] | IC50 ([9]; Homo sapiens, MDA-MB-231, 72 h) [µM] | ΔT1/2 (°C) FdxT [10] [°C] | ΔT1/2 (°C) FBCL-2T [11] [°C] | ΔT1/2 (°C) FK-RAST [12] [°C] | ΔT1/2 [13] [°C] | IC50 [8] [µM] | IC50 [9] [µM] | ΔT1/2 [14] [°C] |
| --- | --- | --- | --- | --- | --- | --- | --- | --- | --- | --- | --- | --- | --- | --- | --- | --- |
| CN(C)CCCNCc1ccc(-c2cc(-c3ccc(CNCCCN(C)C)cc3)c3cccc(-c4ccccc4)c3n2)cc1 [Compound 13e, 2,4-bis{4-[(3-dimethylaminopropyl)aminomethyl]phenyl}-8-phenylquinoline] | 5.5 ± 0.9 | 1.5 ± 0.34 | 7 ± 0.1 | 5.5 ± 0.9 | 1.07 ± 0.45 | 15.9 ± 0.4 | 1.28 ± 0.21 | 1.12 ± 0.1 | 1.21 ± 0.03 | 0.2 ± 0.1 | 8.3 ± 0.1 | 11.6 ± 1.4 | – | – | – | – |
| CN(C)CCCNCc1ccc(-c2nc(-c3ccc(CNCCCN(C)C)cc3)c3c(-c4ccccc4)cccc3n2)cc1 [Compound 12a, 2,4-bis{4-[(3-dimethylaminopropyl)aminomethyl]phenyl}-5-phenylquinazoline] | 9.3 ± 0.3 | 2.6 ± 0.03 | 14 ± 0.2 | – | 0.62 ± 0.12 | 6.8 ± 0.8 | 1.36 ± 0.04 | 1.12 to 1.24 | 1.45 | 0.9 ± 0.2 | 7.4 ± 0.9 | 10.6 ± 0.6 | 10.6 ± 0.6 | 1.12 ± 0.13 | 1.45 ± 0.14 | 6.8 ± 0.8 |
